# In ChEMBL document CHEMBL2380275, “Synthesis of new heterocyclic hybrids based on pyrazole and thiazolidinone scaffolds as potent inhibitors of tyrosinase” (Bioorg Med Chem, 2013):
# Calls of active or inactive are those of the source. The rule behind the calls is not given here.
# What was measured:
# [1] = target: T1, Tyrosinase (Agaricus bisporus) (UniProt O42713); test: Reversible inhibition of mushroom tyrosinase diphenolase activity assessed as L-DOPA conversion to dopachrome by Lineweaver-Burk plot analysis
# T1 sequence (whole entry): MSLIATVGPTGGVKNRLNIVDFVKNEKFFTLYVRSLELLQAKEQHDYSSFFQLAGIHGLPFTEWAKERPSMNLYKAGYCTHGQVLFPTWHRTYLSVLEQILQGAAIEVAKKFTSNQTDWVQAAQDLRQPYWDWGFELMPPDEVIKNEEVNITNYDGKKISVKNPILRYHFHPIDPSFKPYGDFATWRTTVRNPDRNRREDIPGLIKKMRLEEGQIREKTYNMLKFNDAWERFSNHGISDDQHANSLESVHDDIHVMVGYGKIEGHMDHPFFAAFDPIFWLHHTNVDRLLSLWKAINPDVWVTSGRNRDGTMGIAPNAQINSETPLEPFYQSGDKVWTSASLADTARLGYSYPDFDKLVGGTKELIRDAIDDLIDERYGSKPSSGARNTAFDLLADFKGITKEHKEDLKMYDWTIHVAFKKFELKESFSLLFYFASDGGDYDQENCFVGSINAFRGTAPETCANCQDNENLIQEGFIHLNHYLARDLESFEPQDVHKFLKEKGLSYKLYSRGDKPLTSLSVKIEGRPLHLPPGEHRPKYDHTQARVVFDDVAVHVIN
# [2] = target: T1, Tyrosinase (Agaricus bisporus); test: Inhibition of mushroom tyrosinase using L-DOPA as substrate at 200 uM preincubated for 10 mins by spectrophotometric analysis relative to control
# Tyrosinase [3] = target: T2, Tyrosinase (Agaricus bisporus, UniProt O42713); test: Inhibition of mushroom tyrosinase using L-DOPA as substrate preincubated for 10 mins by spectrophotometric analysis
# T2 sequence (O42713 whole entry): T1 sequence (whole entry)
# Tyrosinase [4] = target: T2, Tyrosinase
# Description: Competitive inhibition of mushroom tyrosinase diphenolase activity assessed as L-DOPA conversion to dopachrome by Lineweaver-Burk plot analysis
inhibition [1],inhibition [2] [%],IC50 (Tyrosinase [3]) [µM],Ki (Tyrosinase [4]) [µM],SMILES
Active,110,52.6,21.5,COc1ccc(NC2=NC(=O)/C(=C/c3cn(-c4ccccc4)nc3-c3cccc(Cl)c3)S2)c(OC)c1
,13.5,194,,COc1ccc(NC2=NC(=O)/C(=C/c3cn(-c4ccccc4)nc3-c3ccc(C)cc3)S2)c(OC)c1
,87.9,131,9.46,COc1ccc(NC2=NC(=O)/C(=C/c3cn(-c4ccccc4)nc3-c3ccc(Br)cc3)S2)c(OC)c1
,8.03,,,COc1ccc(NC2=NC(=O)/C(=C/c3cn(-c4ccccc4)nc3-c3ccccc3)S2)c(OC)c1
,46.8,114,,COc1ccc(-c2nn(-c3ccccc3)cc2/C=C2\SC(Nc3ccc(OC)cc3OC)=NC2=O)cc1
,52,81.7,16.9,COc1ccc(NC2=NC(=O)/C(=C/c3cn(-c4ccccc4)nc3-c3ccc(Cl)cc3Cl)S2)c(OC)c1
,54.2,104,7.18,COc1ccc(NC2=NC(=O)/C(=C/c3cn(-c4ccccc4)nc3-c3ccc(F)cc3)S2)c(OC)c1
,38,74,5.7,COc1ccc(NC2=NC(=O)/C(=C/c3cn(-c4ccccc4)nc3-c3ccc(Cl)cc3)S2)c(OC)c1
Active,126,34.1,29.1,COc1ccc(NC2=NC(=O)/C(=C/c3cn(-c4ccccc4)nc3-c3ccccc3Cl)S2)c(OC)c1
